assay: Inhibition of chemotaxis in human MCP1 monocytes

Row | Structure (SMILES) | IC50
1 | CC(C)C[C@]1(C(=O)NCc2cc(F)cc(C(F)(F)F)c2)CC[C@@H](N2CC[C@]3(C=Cc4ccccc43)[C@@H](C)C2)C1 [(1R,3R)-N-{[3-fluoro-5-(trifluoromethyl)phenyl]methyl}-1-(2-methylpropyl)-3-[(1S,5'R)-5'-methylspiro[indene-1,4'-piperidine]-1'-yl]cyclopentane-1-carboxamide] | 0.32 nM
2 | C[C@H]1CN([C@@H]2CC[C@@](C(=O)NCc3cc(F)cc(C(F)(F)F)c3)(C3CC3)C2)CC[C@]12C=Cc1ccccc12 [(1S,3R)-1-cyclopropyl-N-{[3-fluoro-5-(trifluoromethyl)phenyl]methyl}-3-[(1S,5'R)-5'-methylspiro[indene-1,4'-piperidine]-1'-yl]cyclopentane-1-carboxamide] | 0.23 nM
3 | CC(C)[C@]1(C(=O)NCc2cc(F)cc(C(F)(F)F)c2)CC[C@@H](N2CC[C@]3(C=Cc4ccccc43)[C@@H](C)C2)C1 [(1S,3R)-N-{[3-fluoro-5-(trifluoromethyl)phenyl]methyl}-3-[(1S,5'R)-5'-methylspiro[indene-1,4'-piperidine]-1'-yl]-1-(propan-2-yl)cyclopentane-1-carboxamide] | 0.15 nM

— BindingDB's records for doi:10.1016/j.bmcl.2007.04.053 (Merck Research Laboratories, 2007)
